For experiment [1], the system named is L1210. Description: In vitro inhibitory concentration against L1210 leukemia cell line for antiproliferative activity. The experiment is classed as functional, cell-based. The note with it: Mus musculus.
The subject of experiment [2] is L1210. Description: Effect in the G2/M phase of L1210 leukemia cell with a significant percentage of cells having 8N DNA content at 25 uM. It is filed as functional, Mus musculus.
In experiment [3] the test system is L1210. Description: Effect in the G1 phase of L1210 leukemia cell at 50 uM. It is filed as functional, Mus musculus.
The test system of a further experiment is Hs-578T. Description: Tested for cytostatic activity against Breast Hs 578.T cell line of NCI 60 tumor cell line panel. It is filed as functional. To be noted: Homo sapiens.
The test system of another experiment is HCC 2998. Description: Tested for cytostatic activity against colon HCC2998 cell line of NCI 60 tumor cell line panel. To be noted: Homo sapiens. It is filed as functional.
For another experiment, the system named is A498. Description: Tested for cytostatic activity against Renal A-498 cell line of NCI 60 tumor cell line panel. The experiment is classed as functional. The note with it: Homo sapiens.
In another experiment the test system is SF-295. Description: Tested for cytostatic activity against Central nervous system SF-295 cell line of NCI 60 tumor cell line panel. It is filed as functional. To be noted: Homo sapiens.
For a further experiment, the system named is SK-MEL-2. Description: Tested for cytostatic activity against Melanoma SK-MEL2 cell line of NCI 60 tumor cell line panel. It is filed as functional. The note with it: Homo sapiens.
A further experiment has as its system EKVX. Description: Tested for cytostatic activity against non small cell lung(NSCL) EKVX cell line of NCI 60 tumor cell line panel. The experiment is classed as functional. To be noted: Homo sapiens.
The next experiment has as its system MOLT-4. Description: Tested for cytostatic activity against Leukemia MOLT-4 cell line of NCI 60 tumor cell line panel. The experiment is classed as functional. To be noted: Homo sapiens.
Experiment [4] relates to DU-145. Description: Tested for cytostatic activity against Prostate DU-145 cell line of NCI 60 tumor cell line panel. The experiment is classed as functional. The note with it: Homo sapiens.
Experiment [5] concerns OVCAR-3. Description: Tested for cytostatic activity against Ovarian OVCAR-3 cell line of NCI 60 tumor cell line panel. The experiment is classed as functional. The note with it: Homo sapiens.
For experiment [6], the system named is L1210. Description: Effect in the G2/M phase of L1210 leukemia cell with a significant percentage of cells having 8N DNA content at 0.5 uM. It is filed as functional, Mus musculus.
Experiment [7] concerns L1210. Description: Effect in the G2/M phase of L1210 leukemia cell with a significant percentage of cells having 8N DNA content at 1 uM. It is filed as functional, Mus musculus.
A further experiment relates to B16. Description: Tested for antiproliferative activity against B16 tumoral cell line. The experiment is classed as functional, cell-based. To be noted: Mus musculus.
Another experiment concerns P388/VCR-20. Description: Tested for antiproliferative activity against VCR-20 tumoral cell line. The experiment is classed as functional, cell-based. To be noted: Mus musculus.
In the next experiment the test system is P388. Description: Tested for antiproliferative activity against P388 tumoral cell line. The note with it: Mus musculus. The experiment is classed as functional, cell-based.
In experiment [8] the test system is OVCAR-3. Description: Tested for antiproliferative activity against Ovcar-3 tumoral cell line. The experiment is classed as functional, cell-based. The note with it: Homo sapiens.
The subject of experiment [9] is DU-145. Description: Tested for antiproliferative activity against DU145 tumoral cell line. The experiment is classed as functional, cell-based. The note with it: Homo sapiens.
In a further experiment the test system is KB 3-1. Description: Tested for antiproliferative activity against KB 3-1 tumoral cell line. It is filed as functional, cell-based. To be noted: Homo sapiens.
Experiment [10] is described as follows: Concentration required to alter the assembly reaction of microtubules without any depolymerization effect. The experiment is classed as functional.
In another experiment the test system is A2780. Description: Tested for antiproliferative activity against A-2780 tumoral cell line. The experiment is classed as functional, cell-based. To be noted: Homo sapiens.
The next experiment deals with NCI-H69. Description: Tested for antiproliferative activity against H-69 tumoral cell line. The note with it: Homo sapiens. It is filed as functional, cell-based.
The next experiment concerns KB. Description: Tested for antiproliferative activity against KB-A1 tumoral cell line. The note with it: Homo sapiens. The experiment is classed as functional, cell-based.
In experiment [11] the test system is L1210. Description: Tested for antiproliferative activity against L1210 tumoral cell line. It is filed as functional, cell-based. The note with it: Mus musculus.
In experiment [12] the test system is L1210. Description: Effect in the G2/M phase of L1210 leukemia cell with a significant percentage of cells having 8N DNA content at 10 uM. It is filed as functional, Mus musculus.
For experiment [13], the system named is L1210. Description: Effect in the G2/M phase of L1210 leukemia cell with a significant percentage of cells having 8N DNA content at 5 uM. It is filed as functional, Mus musculus.
The nature of experiment [14]: Inhibition of tubulin polymerization. It is filed as functional.

The structures appear in SMILES notation.

By IC50 is commonly meant the midpoint of a concentration-inhibition curve. Read a high IC50 as a need for much substance. A word on the GI50: it is the concentration at which growth is held to half of that of the control.

In the experiment with L1210 [1], `COc1cc(-c2csc3c2-n2cccc2C3=O)ccc1O` yielded a half-maximal inhibitory concentration (IC50) of 8 µM. Besides, in the experiment on L1210 [2], the Effect is listed as 86%.

In the experiment on L1210 [1], `CCCOc1ccc(-c2csc3c2-n2cccc2C3=O)cc1` registered an IC50 of 28.1 µM.

`O=C1c2scc(-c3cccc(O)c3)c2-n2cccc21` displayed an IC50 in the experiment on L1210 [1] of 29 µM.

The molecule `O=C1c2scc(-c3ccccc3O)c2-n2cccc21` returned an Effect in the experiment on L1210 [3] of 72%. For the same molecule, the concentration for half-maximal inhibition (IC50) with L1210 [1] came out at 3.7 µM.

For the molecule `O=C1c2scc(-c3ccc(Cl)cc3)c2-n2cccc21`, the GI50 in the experiment on Hs-578T is 2 µM; in the experiment with HCC 2998, more than 100 µM; with A498 it was 1000 nM; in the experiment with SF-295, more than 100 µM; in the experiment on SK-MEL-2, more than 100 µM; in the experiment on EKVX it was 2.51 µM. For the same molecule, the GI50 in the experiment with MOLT-4 is 79.4 µM; in the experiment with DU-145 [4], more than 100 µM; with OVCAR-3 [5] it was more than 100 µM.

On to `O=C1c2scc(-c3ccc(O)c(O)c3)c2-n2cccc21`, for which, in the experiment with L1210 [6], the Effect worked out at 86%. Also, the half-inhibitory concentration (IC50) in the experiment with L1210 [1] came to 0.28 µM.

As to `COc1ccc(-c2csc3c2-n2cccc2C3=O)cc1`, the GI50 with Hs-578T is 0.0501 µM; in the experiment with HCC 2998, 0.316 µM; in the experiment on A498 it was 631 nM; in the experiment with SF-295, 0.0398 µM; with SK-MEL-2, 0.398 µM; in the experiment on EKVX it was 0.794 µM. For the same molecule, the figures for the GI50 with MOLT-4, with DU-145 [4] and in the experiment with OVCAR-3 [5] were 0.0398 µM, 0.158 µM and 0.0398 µM, respectively. Moreover, the Effect with L1210 [6] turned out to be 83%. Besides, the IC50 in the experiment with L1210 [1] amounted to 0.19 µM.

In the experiment with L1210 [7], `CCOc1ccc(-c2csc3c2-n2cccc2C3=O)cc1` came in with an Effect of 88%. The molecule further yielded a concentration for half-maximal inhibition (IC50) in the experiment with L1210 [1] of 0.43 µM.

Consider `O=C1c2scc(-c3ccccc3)c2-n2cccc21`, for which the concentration for 50% growth inhibition (GI50) in the experiment on Hs-578T was 5.01 µM; with HCC 2998, 20 µM; in the experiment on A498 it was 1580 nM; in the experiment on SF-295 it was 20 µM; in the experiment on SK-MEL-2, 12.6 µM; in the experiment with EKVX it was 5.01 µM. In addition, the GI50 was 12.6 µM in the experiment with MOLT-4, 25.1 µM with DU-145 [4] and 15.8 µM in the experiment on OVCAR-3 [5]. Besides, in the experiment on L1210 [1], the 50% inhibitory concentration (IC50) is 26.7 µM.

With `O=C1c2scc(-c3ccc(F)cc3)c2-n2cccc21`, the concentration for 50% growth inhibition (GI50) with Hs-578T was 20 µM; in the experiment with HCC 2998 it was 25.1 µM; in the experiment on A498, 1580 nM; in the experiment on SF-295, 25.1 µM; with SK-MEL-2, 31.6 µM; with EKVX, 25.1 µM. For the same molecule, the GI50 in the experiment on MOLT-4 is 25.1 µM; in the experiment on DU-145 [4], 79.4 µM; with OVCAR-3 [5], 50.1 µM.

In turn, `COc1cccc(-c2csc3c2-n2cccc2C3=O)c1` showed an IC50 in the experiment with L1210 [1] of 5.2 µM. In the experiment on L1210 [2], this molecule returned an Effect of 94%.

In the experiment on L1210 [1], `CCCCOc1ccc(-c2csc3c2-n2cccc2C3=O)cc1` had a concentration for half-maximal inhibition (IC50) of 29.6 µM.

As for `COc1ccc(-c2csc3c2-n2cccc2C3=O)cc1O`, the IC50 in the experiment on B16 came to 23 nM; in the experiment with P388/VCR-20 it was 21 nM; in the experiment with P388, 38 nM; with OVCAR-3 [8] it was 31 nM; with DU-145 [9], 43 nM; in the experiment on KB 3-1, 18 nM. Moreover, the IC50 in experiment [10] is 2900 nM; in the experiment on A2780 it was 41 nM; with NCI-H69, 36 nM; in the experiment on L1210 [1] it was 0.015 µM; in the experiment on KB, 15 nM; with L1210 [11], 15 nM. This molecule also had an Effect in the experiment with L1210 [6] of 80%.

On to `O=C1c2scc(-c3ccc4c(c3)OCO4)c2-n2cccc21`, for which the Effect with L1210 [12] amounted to 88%. Also, in the experiment on L1210 [1], the concentration for half-maximal inhibition (IC50) stood at 4.2 µM.

The molecule `Cc1csc2c1-n1cccc1C2=O` displayed an IC50 with L1210 [1] of more than 100 µM.

For `COc1ccc(-c2csc3c2-n2cccc2C3=O)cc1OC`, in the experiment with L1210 [1], the IC50 was 11.7 µM. In the experiment on L1210 [2], this molecule had an Effect of 86%.

Turning to `COc1ccccc1-c1csc2c1-n1cccc1C2=O`, the Effect with L1210 [13] was determined as 75%. Further, in the experiment with L1210 [1], half-maximal inhibition (IC50) was put at 18.9 µM.

For `O=C1c2sccc2-n2cccc21`, the IC50 in the experiment on L1210 [1] is more than 100 µM.

In the case of `COc1cc(-c2csc3c2-n2cccc2C3=O)cc(OC)c1OC`, the concentration for half-maximal inhibition (IC50) with L1210 [1] came out at 36.4 µM.

`O=C1c2scc(-c3ccc(O)cc3)c2-n2cccc21` showed an IC50 with L1210 [1] of 30.1 µM.

In [14], `COc1cc([C@@H]2c3cc4c(cc3C[C@H]3COC(=O)[C@@H]32)OCO4)cc(OC)c1OC` [DESOXYPODOPHYLLOTOXIN] yielded an IC50 of 2400 nM.

(Values after ChEMBL document CHEMBL1133918, “Design, synthesis and antiproliferative activity of tripentones: a new series of antitubulin agents” (Bioorg Med Chem Lett, 2001).)
